In patent publication US8802597B2, “Herbicidal pyrimidines” (E I du Pont de Nemours and Company, priority 2003, dated 2014):
Read-outs that look alike come from different tables or passages of the source.

Assays:
Assay in all cases: Test C pre/postemergence
Type in all cases: in vivo
[1] = tested on: common (oilseed) sunflower (Helianthus annuus); conditions: Helianthus annuus, pre-emergence, Preemergence, read-out: Plant response rating, Sunflower
Outline: (§1)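 Applications: preemergence onto seeded soil and postemergence onto 1- to 4-leaf seedlings, compound carried in non-phytotoxic solvent plus surfactant. Kept in greenhouse 12 to 14 days. Scored visually relative to untreated controls, 0 (no effect) to 100 (complete control).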

[2] = tested on: giant foxtail (Setaria faberii); conditions: Setaria faberi; for pest or weed control at 125 g/ha: 125 g ai/ha; for pest or weed control at 31 g/ha: 31 g ai/ha; for pest or weed control at 62 g/ha: 62 g ai/ha; for pest or weed control at 250 g/ha: 250 g ai/ha
Outline: as §1

soybean (Glycine max) = conditions: Glycine max; for plant injury at 31 g/ha: 31 g ai/ha; for plant injury at 62 g/ha: 62 g ai/ha; for plant injury at 125 g/ha: 125 g ai/ha; for plant injury at 250 g/ha: 250 g ai/ha
Outline: as §1

[3] = tested on: morningglory (Ipomoea coccinea); conditions: Ipomoea; for pest or weed control at 31 g/ha: 31 g ai/ha; for pest or weed control at 62 g/ha: 62 g ai/ha; for pest or weed control at 125 g/ha: 125 g ai/ha; for pest or weed control at 250 g/ha: 250 g ai/ha
Outline: as §1

[4] = tested on: woolly cupgrass (Eriochloa villosa); conditions: Eriochloa villosa; for pest or weed control at 31 g/ha: 31 g ai/ha; for pest or weed control at 62 g/ha: 62 g ai/ha; for pest or weed control at 125 g/ha: 125 g ai/ha
Outline: as §1

kochia (Kochia scoparia) = conditions: Bassia scoparia; for pest or weed control at 31 g/ha: 31 g ai/ha; for pest or weed control at 62 g/ha: 62 g ai/ha; for pest or weed control at 125 g/ha: 125 g ai/ha
Outline: as §1

[5] = post-emergence, Postemergence, scale 0 to 100 (0 no effect, 100 complete control), read-out: Foxtail, Giant plant response rating
[6] = pre-emergence, Preemergence, scale 0 to 100, 0 no effect, 100 complete control, read-out: Plant response rating, Foxtail, Giant
[7] = pre-emergence, Preemergence, scale 0 to 100, read-out: Plant response rating, Foxtail, Giant
[8] = post-emergence, Postemergence, scale 0 to 100 (0 no effect, 100 complete control), read-out: Soybean plant response rating
[9] = pre-emergence, Preemergence, scale 0 to 100, 0 no effect, 100 complete control, read-out: Plant response rating, Soybean
[10] = pre-emergence, Preemergence, scale 0 to 100, read-out: Plant response rating, Soybean
[11] = post-emergence, Postemergence, scale 0 to 100 (0 no effect, 100 complete control), read-out: Morningglory plant response rating
[12] = pre-emergence, Preemergence, scale 0 to 100, 0 no effect, 100 complete control, read-out: Plant response rating, Morningglory
[13] = pre-emergence, Preemergence, scale 0 to 100, read-out: Plant response rating, Morningglory
[14] = post-emergence, Postemergence, scale 0 to 100 (0 no effect, 100 complete control), read-out: Cupgrass, Woolly plant response rating
[15] = pre-emergence, Preemergence, scale 0 to 100, 0 no effect, 100 complete control, read-out: Plant response rating, Cupgrass, Woolly
[16] = post-emergence, Postemergence, scale 0 to 100 (0 no effect, 100 complete control), read-out: Kochia plant response rating
[17] = pre-emergence, Preemergence, scale 0 to 100, 0 no effect, 100 complete control, read-out: Plant response rating, Kochia

CCOC(=O)c1nc(-c2ccc(Cl)cc2)nc(N)c1Cl [Compound 64, ethyl 6-amino-5-chloro-2-(4-chlorophenyl)-4-pyrimidinecarboxylate]
20%: pest or weed control at 62 g/ha [2, 5] | pest or weed control at 31 g/ha (kochia (Kochia scoparia); [17]) | pest or weed control at 62 g/ha (kochia (Kochia scoparia); [17])
25%: pest or weed control at 125 g/ha (kochia (Kochia scoparia); pre-emergence, Preemergence, scale 0 to 100, read-out: Plant response rating, Kochia)
30%: pest or weed control at 125 g/ha ([1]; 125 g ai/ha, scale 0 to 100) | pest or weed control at 31 g/ha ([4]; post-emergence, Postemergence, read-out: Plant response rating (scale of 0 to 100), Cupgrass, Woolly)
80%: pest or weed control at 31 g/ha (kochia (Kochia scoparia); post-emergence, Postemergence, read-out: Plant response rating (scale of 0 to 100), Kochia)
85%: pest or weed control at 250 g/ha ([1]; 250 g ai/ha, scale 0 to 100) | plant injury at 62 g/ha (soybean (Glycine max); [9]) | plant injury at 125 g/ha (soybean (Glycine max); [10]) | plant injury at 250 g/ha (soybean (Glycine max); [10]) | pest or weed control at 62 g/ha (kochia (Kochia scoparia); [16])
10%: pest or weed control at 250 g/ha [3, 13]
100%: plant injury at 125 g/ha (soybean (Glycine max); [8]) | plant injury at 250 g/ha (soybean (Glycine max); post-emergence, Postemergence, scale 0 to 100, read-out: Plant response rating, Soybean)
65%: pest or weed control at 125 g/ha [4, 14]
0%: pest or weed control at 31 g/ha ([1]; 31 g ai/ha, scale 0 to 100, 0 no effect, 100 complete control) | pest or weed control at 62 g/ha ([1]; 62 g ai/ha, scale 0 to 100, 0 no effect, 100 complete control) | pest or weed control at 31 g/ha ([2]; post-emergence, Postemergence, read-out: Plant response rating (scale of 0 to 100), Foxtail, Giant) | pest or weed control at 31 g/ha [2, 6] | pest or weed control at 62 g/ha [2, 6] | pest or weed control at 125 g/ha [2, 7] | pest or weed control at 250 g/ha [2, 7] | plant injury at 31 g/ha (soybean (Glycine max); [9]) | pest or weed control at 31 g/ha [3, 12] | pest or weed control at 62 g/ha [3, 12] | pest or weed control at 125 g/ha [3, 13] | pest or weed control at 31 g/ha [4, 15] | pest or weed control at 62 g/ha [4, 15] | pest or weed control at 125 g/ha ([4]; pre-emergence, Preemergence, scale 0 to 100, read-out: Plant response rating, Cupgrass, Woolly)
40%: pest or weed control at 62 g/ha [4, 14] | pest or weed control at 250 g/ha ([4]; pre-emergence, Preemergence, 250 g ai/ha, scale 0 to 100, read-out: Plant response rating, Cupgrass, Woolly)
90%: plant injury at 31 g/ha (soybean (Glycine max); post-emergence, Postemergence, read-out: Plant response rating (scale of 0 to 100), Soybean) | plant injury at 62 g/ha (soybean (Glycine max); [8]) | pest or weed control at 31 g/ha ([3]; post-emergence, Postemergence, read-out: Plant response rating (scale of 0 to 100), Morningglory) | pest or weed control at 62 g/ha [3, 11] | pest or weed control at 125 g/ha [3, 11] | pest or weed control at 250 g/ha ([3]; post-emergence, Postemergence, scale 0 to 100, read-out: Plant response rating, Morningglory) | pest or weed control at 125 g/ha (kochia (Kochia scoparia); [16]) | pest or weed control at 250 g/ha (kochia (Kochia scoparia); post-emergence, Postemergence, 250 g ai/ha, scale 0 to 100, read-out: Plant response rating, Kochia)
50%: pest or weed control at 125 g/ha [2, 5] | pest or weed control at 250 g/ha ([2]; post-emergence, Postemergence, scale 0 to 100, read-out: Plant response rating, Foxtail, Giant)
